EP0193257A1, “Control of micro-organisms in water-containing compositions” (NIPA LABORATORIES, LTD., priority 1985, dated 1986)

What was measured:
Type in all cases: cell-based
[1] = tested on: Klebsiella oxytoca; assay: Bactericidal effect in 27% sodium lauryl ether sulphate (challenge test)
Experimental: (§1) Sodium lauryl ether sulphate (SLES) is a commonly used anionic detergent, a major active component of shampoos, foam baths and general purpose cleaners. The bactericidal activity of some compounds covered by the general formula given above was evaluated at final levels of 0.10% (w/w) and 0. 15% (w/w) in a 27% active solution of SLES (confirmed as containing no other preservatives). The activity of these compounds was evaluated in comparison with 0.30% methyl-4-hydroxybenzoate and an unpreserved control sample.
(§2) The test organisms were three species of resistant Gram negative bacteria which had previously been isolated from contaminated detergent products. 20g portions of test solutions were inoculated with 0.1 ml pure culture of the test bacteria and the time taken to achieve a total lethal effect against each species was determined by sub-culture at regular intervals into sterile dilution media (containing preservative inact ivators) and then into sterile Nutrient Broth, which was incubated for 4 days at 32°C to determine the presence or absence of surviving bacteria.

[2] = tested on: Pseudomonas aeruginosa; assay: as above
Experimental: as §1, §2

[3] = tested on: Serratia marcescens; assay: as above
Experimental: as §1, §2

[4] = tested on: mixed culture of 7 strains of Gram negative bacteria; assay: Survivor plate count in shampoo formulation after challenge; conditions: shampoo with 0.05% citric acid alone (Control 1)
Experimental: A shampoo formulation was prepared to the following formula: […]
Various additions were made to portions of this shampoo in sterile bottles under aseptic conditions, as follows: • 1. 0.20% of 30% DCHB in propylene glycol (0.06% active DCHB) • 2. 0.20% of 30% DCHB in propylene glycol + 0.05% citric acid • 3. 0.05% citric acid (control 1) • 4. No addition (control 2)
Each of these systems was inoculated with a mixed culture of 7 strains of Gram negative bacteria, at an initial inocullum level of 9.0x10^7 colony forming units per g. At 30 mins, 1 hour, 2 hours, 6 hours, 24 hours and 7 days after inoculation the total number of survivors in each sample portion were determined by serial dilution and plate counting; with the following results: […]

[5] = tested on: Candida albicans; assay: Microbial challenge test in cosmetic cream
Experimental: (§3) Emulsions are susceptible to contamination and spoilage by-a wide range of micro-organisms. 3.5-Dibromo-4-hydroxybenzaldehyde (DBHB), as a non-limiting illustration of the invention, was evaluated in a typical cosmetic cream for microbiocidal efficacy. The cosmetic cream had the following formulation: […]
(§4) This cream was prepared by heating the oil and water phases to 70°C, mixing and stirring until cool. The DBHB was incorporated into the cream at final levels of 0.05%, 0.10% and 0.15% by dissolving into the emulsion components at the heating stage. A microbial challenge test was performed to determine the micro-biocidal activity of the test product. The following test organisms were inoculated in pure culture into portions of sterile cream samples and the time taken to achieve a total lethal effect was determined by regular sub-culture into recovery media (with preservative inactivators) which were incubated and observed for growth of survivors.

[6] = tested on: Escherichia coli; assay: Microbial challenge test in cosmetic cream
Experimental: as §3, §4

[7] = tested on: Pencicillium expansum; assay: Microbial challenge test in cosmetic cream
Experimental: as §3, §4

[8] = tested on: Pseudomonas aeruginosa; assay: Microbial challenge test in cosmetic cream
Experimental: as §3, §4

[9] = tested on: Pseudomonas putida; assay: Microbial challenge test in cosmetic cream
Experimental: as §3, §4

[10] = tested on: Serratia marcescens; assay: Microbial challenge test in cosmetic cream
Experimental: as §3, §4

[11] = tested on: Staphylococcus aureus; assay: Microbial challenge test in cosmetic cream
Experimental: as §3, §4

[12] = tested on: Escherichia coli; assay: Challenge test in Polysorbate 80 solutions
Experimental: (§5) Many antimicrobial preservatives are inactivated by polyalkoxylated nonionic emulsifiers which are widely used in emulsification of cosmetic, pharmaceutical and industrial emulsions. […] Normal use levels of Polysorbate 80 are 1-5%.
(§6) 3,5-Dibromo-4-hydroxybenzaldehyde was evaluated at 0.05%, 0.10% and 0.15% in 5% and 10% Polysorbate 80 solutions by a challenge test of the type described in Example 2.

[13] = tested on: Klebsiella oxytoca; assay: Challenge test in Polysorbate 80 solutions
Experimental: as §5, §6

[14] = tested on: Pseudomonas aeruginosa; assay: Challenge test in Polysorbate 80 solutions
Experimental: as §5, §6

[15] = tested on: Pseudomonas putida; assay: Challenge test in Polysorbate 80 solutions
Experimental: as §5, §6

[16] = tested on: Serratia marcescens; assay: Challenge test in Polysorbate 80 solutions
Experimental: as §5, §6

[17] = 0.05%, Polysorbate 80 level 10%
[18] = 0.10%, Polysorbate 80 level 10%
[19] = 0.15%, Polysorbate 80 level 10%

With O=Cc1ccc(O)c(Cl)c1 [3-Chloro-4-hydroxybenzaldehyde] the “Time to achieve total lethal effect against: K oxytoca” value ([1]; 0.10% in 27% SLES) was 6 h, the “Time to achieve total lethal effect against: K oxytoca” value ([1]; 0.15% in 27% SLES) was 1 h and the “Time to achieve total lethal effect against: P aeruginosa” value ([2]; 0.10% in 27% SLES) was 3 h. For the same molecule, the “Time to achieve total lethal effect against: P aeruginosa” value ([2]; 0.15% in 27% SLES) was 1 h, the “Time to achieve total lethal effect against: S marcescens” value ([3]; 0.10% in 27% SLES) was 1 days and the “Time to achieve total lethal effect against: S marcescens” value ([3]; 0.15% in 27% SLES) was 0.25 days.

With O=C(O)CC(O)(CC(=O)O)C(=O)O [citric acid, reference compound] the “Mixed culture - colony forming units/g after: 30 mins” value [4] was 9.0x10^7 colony forming units/g, the “Mixed culture - colony forming units/g after: 1 hour” value [4] was 3.5x10^7 colony forming units/g and the “Mixed culture - colony forming units/g after: 2 hours” value [4] was 6.5x10^7 colony forming units/g. For the same molecule, the “Mixed culture - colony forming units/g after: 6 hours” value [4] was >1x10^8 colony forming units/g, the “Mixed culture - colony forming units/g after: 24 hours” value [4] was >1x10^8 colony forming units/g and the “Mixed culture - colony forming units/g after: 7 days” value [4] was >1x10^8 colony forming units/g.

O=Cc1cc(Br)c(O)c(Br)c1 [DBHB, 3,5-Dibromo-4-hydroxybenzaldehyde] was tested, and the “Time to achieve total lethal effect against: K oxytoca” value ([1]; 0.10% in 27% SLES) was 3 h, the “Time to achieve total lethal effect against: K oxytoca” value ([1]; 0.15% in 27% SLES) was <1 h and the “Time to achieve total lethal effect against: P aeruginosa” value ([2]; 0.10% in 27% SLES) was 1 hour hours. For the same molecule, the “Time to achieve total lethal effect against: P aeruginosa” value ([2]; 0.15% in 27% SLES) was <1 h, the “Time to achieve total lethal effect against: S marcescens” value ([3]; 0.10% in 27% SLES) was 0.12 days and the “Time to achieve total lethal effect against: S marcescens” value ([3]; 0.15% in 27% SLES) was <1 hour hours. The “Time taken to achieve total lethal effect against: C albicans” value (from here on “Time taken … C albicans”) ([5]; 0.05% in cosmetic cream) was 3 h, the “Time taken … C albicans” value ([5]; 0.10% in cosmetic cream) was <1 h and the “Time taken … C albicans” value ([5]; 0.15% in cosmetic cream) was <1 h. For the same molecule, the “Time taken to achieve total lethal effect against: E coli” value (“Time taken … E coli” below) ([6]; 0.05% in cosmetic cream) was 3 h, the “Time taken … E coli” value ([6]; 0.10% in cosmetic cream) was 3 h and the “Time taken … E coli” value ([6]; 0.15% in cosmetic cream) was <1 h. The “Time taken to achieve total lethal effect against: Pen expansum” value (“Time taken … Pen expansum” for short) ([7]; 0.05% in cosmetic cream) was 4 days, the “Time taken … Pen expansum” value ([7]; 0.10% in cosmetic cream) was 2 days and the “Time taken … Pen expansum” value ([7]; 0.15% in cosmetic cream) was 1 days. The “Time taken to achieve total lethal effect against: P aeruginosa” value (from here on “Time taken … P aeruginosa”) ([8]; 0.05% in cosmetic cream) was 3 h, the “Time taken … P aeruginosa” value ([8]; 0.10% in cosmetic cream) was 3 h and the “Time taken … P aeruginosa” value ([8]; 0.15% in cosmetic cream) was <1 h. The “Time taken to achieve total lethal effect against: P putida” value (“Time taken … P putida” below) ([9]; 0.05% in cosmetic cream) was 3 h, the “Time taken … P putida” value ([9]; 0.10% in cosmetic cream) was <1 h and the “Time taken … P putida” value ([9]; 0.15% in cosmetic cream) was <1 h. The “Time taken to achieve total lethal effect against: S marcescens” value (shortened to “Time taken … S marcescens”) ([10]; 0.05% in cosmetic cream) was 3 h, the “Time taken … S marcescens” value ([10]; 0.10% in cosmetic cream) was 3 h and the “Time taken … S marcescens” value ([10]; 0.15% in cosmetic cream) was 1 h. For the same molecule, the “Time taken to achieve total lethal effect against: S aureus” value (“Time taken … S aureus” for short) ([11]; 0.05% in cosmetic cream) was 1 h, the “Time taken … S aureus” value ([11]; 0.10% in cosmetic cream) was <1 h and the “Time taken … S aureus” value ([11]; 0.15% in cosmetic cream) was <1 h. The “Time taken … E coli” value ([12]; 0.05%, Polysorbate 80 level 5%) was 6 h, the “Time taken … E coli” value [12, 17] was 3 h and the “Time taken … E coli” value ([12]; 0.10%, Polysorbate 80 level 5%) was <1 h. The “Time taken … E coli” value [12, 18] was 1 h, the “Time taken … E coli” value ([12]; 0.15%, Polysorbate 80 level 5%) was <1 h and the “Time taken … E coli” value [12, 19] was <1 h. For the same molecule, the “Time taken to achieve total lethal effect against: K oxytoca” value (from here on “Time taken … K oxytoca”) ([13]; 0.05%, Polysorbate 80 level 5%) was 6 h, the “Time taken … K oxytoca” value [13, 17] was 3 h and the “Time taken … K oxytoca” value ([13]; 0.10%, Polysorbate 80 level 5%) was 1 h. For the same molecule, the “Time taken … K oxytoca” value [13, 18] was 1 h, the “Time taken … K oxytoca” value ([13]; 0.15%, Polysorbate 80 level 5%) was <1 h and the “Time taken … K oxytoca” value [13, 19] was <1 h. For the same molecule, the “Time taken … P aeruginosa” value ([14]; 0.05%, Polysorbate 80 level 5%) was 3 h, the “Time taken … P aeruginosa” value [14, 17] was 24 h and the “Time taken … P aeruginosa” value ([14]; 0.10%, Polysorbate 80 level 5%) was <1 h. For the same molecule, the “Time taken … P aeruginosa” value [14, 18] was 3 h, the “Time taken … P aeruginosa” value ([14]; 0.15%, Polysorbate 80 level 5%) was <1 h and the “Time taken … P aeruginosa” value [14, 19] was <1 h. For the same molecule, the “Time taken … P putida” value ([15]; 0.05%, Polysorbate 80 level 5%) was 3 h, the “Time taken … P putida” value [15, 17] was 1 h and the “Time taken … P putida” value ([15]; 0.10%, Polysorbate 80 level 5%) was <1 h. For the same molecule, the “Time taken … P putida” value [15, 18] was 1 h, the “Time taken … P putida” value ([15]; 0.15%, Polysorbate 80 level 5%) was <1 h and the “Time taken … P putida” value [15, 19] was <1 h. The “Time taken … S marcescens” value ([16]; 0.05%, Polysorbate 80 level 5%) was 24 h, the “Time taken … S marcescens” value [16, 17] was 24 h and the “Time taken … S marcescens” value ([16]; 0.10%, Polysorbate 80 level 5%) was 1 h. The “Time taken … S marcescens” value [16, 18] was 3 h, the “Time taken … S marcescens” value ([16]; 0.15%, Polysorbate 80 level 5%) was 1 h and the “Time taken … S marcescens” value [16, 19] was 1 h.

In the case of Cc1cc(C=O)cc(C)c1O [3,5-Dimethyl-4-hydroxybenzaldehyde, 3,5,-Dimethyl-4-hydroxybenzaldehyde], the “Time to achieve total lethal effect against: K oxytoca” value ([1]; 0.10% in 27% SLES) was 3 h, the “Time to achieve total lethal effect against: K oxytoca” value ([1]; 0.15% in 27% SLES) was <1 h and the “Time to achieve total lethal effect against: P aeruginosa” value ([2]; 0.10% in 27% SLES) was 1 hour hours. The “Time to achieve total lethal effect against: P aeruginosa” value ([2]; 0.15% in 27% SLES) was <1 h, the “Time to achieve total lethal effect against: S marcescens” value ([3]; 0.10% in 27% SLES) was 1 days and the “Time to achieve total lethal effect against: S marcescens” value ([3]; 0.15% in 27% SLES) was 0.12 days.

COC(=O)c1ccc(O)cc1 [Methyl-4-hydroxybenzoate, reference compound] was tested, and the “Time to achieve total lethal effect against: K oxytoca” value ([1]; 0.3% in 27% SLES) was 504 h, the “Time to achieve total lethal effect against: P aeruginosa” value ([2]; 0.3% in 27% SLES) was 336 h and the “Time to achieve total lethal effect against: S marcescens” value ([3]; 0.3% in 27% SLES) was >28 days.
